The source of these data is US20250115597A1, “TYK2 INHIBITORS AND COMPOSITIONS AND METHODS THEREOF” (LYNK PHARMACEUTICALS CO. LTD., priority 2021, published 2025).

The assay concerns the target T1, Ba/F3-FL-TYK2-P760L cells (Homo sapiens, UniProt P29597, P760L, cells depend on it).
T1 construct: BaF3-FL-T2P760L (nM)
The assay is described as follows: Anti-proliferative assay, Ba/F3-FL-TYK2-P760L cells (Cell-Titer Glo). In kind it is cell-based. The note with it: 72 h, read-out: BaF3-FL-T2P760L IC50. The protocol:
Anti-Proliferative Assay Dimerization domain of Tel protein fused with JAK kinase domain was permanently transduced into Ba/F3 cells, whose proliferation is dependent on JAK activity in the absence of IL-3 induction. These engineered Ba/F3 cells (Ba/F3-FL-TYK2-[…], Ba/F3-TEL-TYK2 and Ba/F3-TEL-JAK2) were used to monitor JAK inhibitory activities of the compounds in the cellular. […] Cells were seeded at 2000/well of white flat bottom 96-well plates. The well containing medium only was used as background control. After 24 h growth, cells were treated with compounds. The test compounds were dissolved in DMSO to a stock concentration of 20 mM. 3-fold serially diluted compounds for 9 concentrations with top concentration of 20 μM was added into the each well. […] The cells continued to grow at 37° C. in 5% CO2 for 72 h after compound treatment. The viability was measured by cellular ATP determination using the Cell-Titer Glo luciferase reagent (Promega). The Luminescence value was recorded by a multi-label reader Envision (PerkinElmer).

A value given as a limit tells only on which side of the number the result lay.

T1 sequence (P29597 whole entry P760L): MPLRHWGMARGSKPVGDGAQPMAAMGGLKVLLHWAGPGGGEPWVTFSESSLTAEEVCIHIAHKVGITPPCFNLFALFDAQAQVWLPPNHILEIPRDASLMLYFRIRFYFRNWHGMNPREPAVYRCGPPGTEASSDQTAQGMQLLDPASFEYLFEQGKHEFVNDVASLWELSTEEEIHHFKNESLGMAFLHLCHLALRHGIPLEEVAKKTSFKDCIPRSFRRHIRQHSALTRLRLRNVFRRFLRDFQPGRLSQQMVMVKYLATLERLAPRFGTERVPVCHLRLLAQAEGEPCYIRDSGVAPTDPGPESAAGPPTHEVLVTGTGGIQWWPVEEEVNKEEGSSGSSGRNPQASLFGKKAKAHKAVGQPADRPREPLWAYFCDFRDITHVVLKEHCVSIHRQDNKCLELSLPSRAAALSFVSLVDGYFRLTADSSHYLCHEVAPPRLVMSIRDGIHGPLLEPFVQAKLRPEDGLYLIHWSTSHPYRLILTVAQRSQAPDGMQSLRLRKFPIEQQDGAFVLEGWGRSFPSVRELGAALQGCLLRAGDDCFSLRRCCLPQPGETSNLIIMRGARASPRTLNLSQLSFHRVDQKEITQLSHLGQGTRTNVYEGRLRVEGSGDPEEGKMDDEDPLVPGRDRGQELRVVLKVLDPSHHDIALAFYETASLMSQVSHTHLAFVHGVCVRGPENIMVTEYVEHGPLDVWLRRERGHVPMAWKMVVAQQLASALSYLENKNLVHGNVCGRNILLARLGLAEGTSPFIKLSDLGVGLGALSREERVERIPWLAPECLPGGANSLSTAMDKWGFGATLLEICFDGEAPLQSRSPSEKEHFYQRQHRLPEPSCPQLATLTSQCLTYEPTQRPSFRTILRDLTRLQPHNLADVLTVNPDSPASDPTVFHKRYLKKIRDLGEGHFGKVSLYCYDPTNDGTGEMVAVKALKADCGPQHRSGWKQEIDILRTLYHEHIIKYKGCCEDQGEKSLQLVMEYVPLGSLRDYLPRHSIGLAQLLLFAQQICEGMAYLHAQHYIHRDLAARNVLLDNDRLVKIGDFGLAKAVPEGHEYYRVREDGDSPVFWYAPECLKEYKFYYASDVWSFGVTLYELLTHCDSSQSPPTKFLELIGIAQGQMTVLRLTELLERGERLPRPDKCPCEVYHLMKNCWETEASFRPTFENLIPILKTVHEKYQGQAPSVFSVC

With `CNC(=O)c1nnc(NC(=O)C2CC2)cc1Nc1cccc2cc[nH]c(=O)c12` [Example 26, 6-(Cyclopropanecarboxamido)-N-methyl-4-((1-oxo-1,2-dihydroisoquinolin-8-yl)amino)pyridazine-3-carboxamide], the GI50 was over 20 µM.
As for `CNC(=O)c1cnc(Nc2ccc(F)cc2)nc1Nc1coc2ccn(C)c(=O)c12` [Example 38, 2-((4-Fluorophenyl)amino)-N-methyl-4-((5-methyl-4-oxo-4,5-dihydrofuro[3,2-c]pyridin-3-yl)amino)pyrimidine-5-carboxamide], the GI50 was 0.831 µM.
Consider `[2H]C([2H])([2H])NC(=O)c1cnc(NC(=O)C2CC2)cc1Nc1csc2c(Cl)cn(CC(F)(F)F)c(=O)c12` [Example 176, 4-((7-Chloro-4-oxo-5-(2,2,2-trifluoroethyl)-4,5-dihydrothieno[3,2-c]pyridin-3-yl)amino)-6-(cyclopropanecarboxamido)-N-(methyl-d3)nicotinamide], for which the GI50 was 0.183 µM.
The same measure for `[2H]C([2H])([2H])NC(=O)c1cnc(Nc2ccn(C3CC3)n2)cc1Nc1ccc2cnn(CC)c2c1OC` [Example 138, 6-((1-Cyclopropyl-1H-pyrazol-3-yl)amino)-4-((1-ethyl-7-methoxy-1H-indazol-6-yl)amino)-N-(methyl-d3)nicotinamide]: 0.0888 µM; for `[2H]C([2H])([2H])NC(=O)c1cnc(Nc2ccc(F)cn2)cc1Nc1cn(C)c2c(Cl)cn(CC)c(=O)c12` [Example 160, 4-((7-Chloro-5-ethyl-1-methyl-4-oxo-4,5-dihydro-1H-pyrrolo[3,2-c]pyridin-3-yl)amino)-6-((5-fluoropyridin-2-yl)amino)-N-(methyl-d3)nicotinamide]: 0.0297 µM; for `CNC(=O)c1cnc(NC(=O)C2CC2)cc1Nc1cccc(OC2CCOCC2)c1OC` [Example 13, 6-(Cyclopropanecarboxamido)-4-((2-methoxy-3-((tetrahydro-2H-pyran-4-yl)oxy)phenyl)amino)-N-methylnicotinamide]: 6.41 µM.
Consider `[2H]C([2H])([2H])NC(=O)c1cnc2nc1Nc1cc(cc(-c3ncn(C)n3)c1OC)COCc1cc(F)cc(n1)N2` [Example 81, 19-Fluoro-10-methoxy-N-(methyl-d3)-11-(1-methyl-1H-1,2,4-triazol-3-yl)-15-oxa-2,4,8,21,23-pentaazatetracyclo[15.3.1.1^{3,7}.1^{9,13}]tricosa-1(21),3,5,7(23),9(22),10,12,17,19-nonaene-6-carboxamide], for which the GI50 is 0.33 µM.
Take `[2H]C([2H])([2H])NC(=O)c1cnc(NC(=O)C2CC2)cc1Nc1cn(C([2H])([2H])[2H])c2ccn(C(C)C(F)(F)F)c(=O)c12` (stereo not shown) [Example 199, 6-(Cyclopropanecarboxamido)-N-(methyl-d3)-4-((1-(methyl-d3)-4-oxo-5-(1,1,1-trifluoropropan-2-yl)-4,5-dihydro-1H-pyrrolo[3,2-c]pyridin-3-yl)amino)nicotinamide]: the GI50 was 0.175 µM.
Regarding `[2H]C([2H])([2H])NC(=O)c1cnc(Nc2ccn(C)n2)nc1Nc1cccc(-c2ncn(C)n2)c1OC` [Example 60, 4-((2-Methoxy-3-(1-methyl-1H-1,2,4-triazol-3-yl)phenyl)amino)-N-(methyl-d3)-2-((1-methyl-1H-pyrazol-3-yl)amino)pyrimidine-5-carboxamide], the GI50 is 1.41 µM.
The same measure for `[2H]C([2H])([2H])NC(=O)c1nnc2cc1Nc1cc(cc(-c3ncc(F)cn3)c1OC)COCc1nc(ccc1F)N2` [Example 80, 18-Fluoro-11-(5-fluoropyrimidin-2-yl)-10-methoxy-N-(methyl-d3)-15-oxa-2,4,5,8,21-pentaazatetracyclo[15.3.1.1^{3,7}.1^{9,13}]tricosa-1(20),3,5,7(23),9(22),10,12,17(21),18-nonaene-6-carboxamide]: 0.213 µM; for `[2H]C([2H])([2H])NC(=O)c1cnc(NC(=O)C2CC2)cc1Nc1ccc2cnn(C(C)C)c2c1OC` [Example 126, 6-(Cyclopropanecarboxamido)-4-((1-isopropyl-7-methoxy-1H-indazol-6-yl)amino)-N-(methyl-d3)nicotinamide]: 0.522 µM; for `CCn1cc(Nc2cc(NC(=O)C3CC3)ncc2C(=O)NC)c2c(=O)n([C@H](C)C(F)(F)F)cnc21` (single isomer, unassigned) [Example 254A, (R*)-6-(cyclopropanecarboxamido)-4-((7-ethyl-4-oxo-3-(1,1,1-trifluoropropan-2-yl)-4,7-dihydro-3H-pyrrolo[2,3-d]pyrimidin-5-yl)amino)-N-(methyl-d3)nicotinamide]: 0.179 µM.
Regarding `[2H]C([2H])([2H])NC(=O)c1cnc(NC(=O)[C@@H]2C[C@@H]2F)cc1Nc1cn(C)c2ccn(CC)c(=O)c12` [Example 102, 4-[(5-Ethyl-1-methyl-4-oxo-pyrrolo[3,2-c]pyridin-3-yl)amino]-6-[[(1S,2S)-2-fluorocyclopropanecarbonyl]amino]-N-(methyl-d3)pyridine-3-carboxamide], the GI50 turned out to be 0.807 µM.
With `[2H]C([2H])([2H])NC(=O)c1nnc2cc1Nc1cc(cc(-c3ccn(C4CC4)n3)c1OC)COCc1cc(F)cc(n1)N2` [Example 94, 11-(1-Cyclopropyl-1H-pyrazol-3-yl)-19-fluoro-10-methoxy-N-(methyl-d3)-15-oxa-2,4,5,8,21-pentaazatetracyclo[15.3.1.1^{3,7}.1^{9,13}]tricosa-1(21),3,5,7(23),9(22),10,12,17,19-nonaene-6-carboxamide], the GI50 amounted to 0.293 µM.
With `[2H]C([2H])([2H])NC(=O)c1cnc(Nc2cnn(C3CCOCC3)c2)nc1Nc1cccc(-c2ncn(C)n2)c1OC` [Example 30, 4-((2-Methoxy-3-(1-methyl-1H-1,2,4-triazol-3-yl)phenyl)amino)-N-(methyl-d3)-2-((1-(tetrahydro-2H-pyran-4-yl)-1H-pyrazol-4-yl)amino)pyrimidine-5-carboxamide], the GI50 amounted to 0.199 µM.
Turning to `[2H]C([2H])([2H])NC(=O)c1cnc(NC(=O)C2CC2)cc1Nc1cn(C)c2ccn(C3CC3)c(=O)c12` [Example 108, 6-(Cyclopropanecarboxamido)-4-((5-cyclopropyl-1-methyl-4-oxo-4,5-dihydro-1H-pyrrolo[3,2-c]pyridin-3-yl)amino)-N-(methyl-d3)nicotinamide], the GI50 turned out to be 0.523 µM.
In the case of `[2H]C([2H])([2H])NC(=O)c1cnc(NC(=O)C2CC2)cc1Nc1nn(C)c2ccn(CC3CC3(F)F)c(=O)c12` (stereo not shown) [Example 107, 6-(Cyclopropanecarboxamido)-4-((5-((2,2-difluorocyclopropyl)methyl)-1-methyl-4-oxo-4,5-dihydro-1H-pyrazolo[4,3-c]pyridin-3-yl)amino)-N-(methyl-d3)nicotinamide], the GI50 turned out to be 2.1 µM.
`[2H]C([2H])([2H])NC(=O)c1cnc(Nc2ccc(F)cc2F)nc1Nc1cccc(-c2ncn(C)n2)c1OC` [Example 63, 2-((2,4-Difluorophenyl)amino)-4-((2-methoxy-3-(1-methyl-1H-1,2,4-triazol-3-yl)phenyl)amino)-N-(methyl-d3)pyrimidine-5-carboxamide]: the GI50 amounted to 0.796 µM.
The same measure for `CNC(=O)c1cnc(NC(=O)C2CC2)cc1Nc1ccc2nc3n(c2c1OC)CCC3` [Example 248, 6-(Cyclopropanecarboxamido)-4-((8-methoxy-2,3-dihydro-1H-benzo[d]pyrrolo[1,2-a]imidazol-7-yl)amino)-N-methylnicotinamide]: 1.42 µM.
As for `[2H]C([2H])([2H])NC(=O)c1cnc(NC(=O)C2CC2)cc1Nc1csc2cnn(C(C)C(F)(F)F)c(=O)c12` (single isomer, unassigned) [Example 185A, (R*)-6-(cyclopropanecarboxamido)-N-(methyl-d3)-4-((4-oxo-5-(1,1,1-trifluoropropan-2-yl)-4,5-dihydrothieno[2,3-d]pyridazin-3-yl)amino)nicotinamide], the GI50 came to 0.205 µM.
The same measure for `[2H]C([2H])([2H])NC(=O)c1cnc(Nc2ccc(F)cn2)cc1Nc1cn(C)c2c(Cl)cn(C)c(=O)c12` [Example 159, 4-((7-Chloro-1,5-dimethyl-4-oxo-4,5-dihydro-1H-pyrrolo[3,2-c]pyridin-3-yl)amino)-6-((5-fluoropyridin-2-yl)amino)-N-(methyl-d3)nicotinamide]: 0.0283 µM.
Take `CNC(=O)c1cnc(NC(=O)C2CC2)cc1Nc1cc(Br)c2nn3c(c2c1OC)CCC3` [Example 155, 4-((6-Bromo-9-methoxy-2,3-dihydro-1H-pyrrolo[1,2-b]indazol-8-yl)amino)-6-(cyclopropanecarboxamido)-N-methylnicotinamide]: the GI50 was 0.902 µM.
As to `CNC(=O)c1cnc(Nc2ccc(F)cc2)nc1Nc1cccc(OC2CCOCC2)c1OC` [Example 6, 2-((4-Fluorophenyl)amino)-4-((2-methoxy-3-((tetrahydro-2H-pyran-4-yl)oxy)phenyl)amino)-N-methylpyrimidine-5-carboxamide], the GI50 was determined as 0.897 µM.
`[2H]C([2H])([2H])NC(=O)c1cnc(NC(=O)C2CC2)cc1Nc1csc2cnn(CCOC)c(=O)c12` [Example 179, 6-(Cyclopropanecarboxamido)-4-((5-(2-methoxyethyl)-4-oxo-4,5-dihydrothieno[2,3-d]pyridazin-3-yl)amino)-N-(methyl-d3)nicotinamide]: the GI50 was over 5 µM.
In the case of `[2H]C([2H])([2H])NC(=O)c1cnc(NC(=O)C2CC2)cc1Nc1cc(F)c2cnn(C([2H])([2H])C([2H])([2H])[2H])c2c1OC` [Example 142, 6-(Cyclopropanecarboxamido)-4-((1-(ethyl-d5)-4-fluoro-7-methoxy-1H-indazol-6-yl)amino)-N-(methyl-d3)nicotinamide] it was 0.169 µM.
